Laboratory results published in patent US20110098284A1, “Methods and compositions for treating pain” (priority 2005, published 2011).
Read-outs that look alike come from different tables or passages of the source.

Tests used:
[1] = test system: marginal vein of each ear; details: for edema at injection site / erythema at injection site: 24 hour observation
[2] = cited from earlier work
[3] = cited from earlier work; for incidence of injection site pain: diclofenac 75 mg or ketorolac 30 mg IM (Morrow)
[4] = vs. 0% placebo; P=0.03; cited from earlier work
[5] = CABG study, cited from earlier work
[6] = test system: marginal vein of each ear; experiment: Histopathological evaluation of injection sites (Example 11); format: in vivo, New Zealand White rabbits
Experimental: Injection sites underwent histopathological evaluation.
Thrombosis was recorded for amorphous aggregates of fibrin like material within vascular lumens and variably adherent to vessel walls.

[7] = stored for 12 weeks at 5° C., 25° C./60% RH, 30° C./60% RH, 40° C./75% RH; for original NSAID content on storage: stability indicating HPLC; for visible signs of crystallization, deviation in pH and osmolarity on storage: vials or ampoules sealed under nitrogen
[8] = Treatment A, 5 mg/0.1 mL IV over one minute
[9] = Treatment B, 15 mg/0.3 mL IV over one minute
[10] = 1 mg/kg over 10 min as solution of 25 mg/mL (Campbell and Watters)
[11] = IV using a diluted infusion (Campbell and Watters)

## CC(C(=O)O)c1cccc(C(=O)c2ccccc2)c1 (racemic) [Ketoprofen, (±)-2-(3-benzoylphenyl)propionic acid]
[1]; Treatment A, 5 mg/0.1 mL IV
  irritation in the ear veins: produced irritation
[1]; [8]
  edema at injection site: slight
  erythema at injection site: well defined
[1]; Treatment B, 15 mg/0.3 mL IV
  irritation in the ear veins: produced irritation
[1]; [9]
  edema at injection site: very slight
  erythema at injection site: very slight to moderate to severe

## O=C(O)Cc1ccccc1Nc1c(Cl)cccc1Cl [diclofenac, 2-(2,6-dichlorophenylamino)benzeneacetic acid]
[2]; 1 mg/kg in 100 mL saline every 12 hours x 2 doses, maxillofacial surgery (Tarkkila)
  patients who developed phlebitis: 10%
[2]; [10]
  incidence of phlebitis, arm: 58%
  incidence of phlebitis, hand: 85%
[2]; [11]
  incidence of thrombosis, arm veins: 8%
  incidence of thrombosis, hand veins: 38%
[2]; after hip replacement surgery, diclofenac 75 mg IV over 30 minutes then 75 mg/15.5 hours, ketoprofen 100 mg over 30 min then 100 mg/15.5 hours (Kostamovaara)
  patients who developed phlebitis: 14%
[2]; after major orthopedic surgery, 0.35 mg/kg IV then 0.90 mcg/min continuous infusion, 6 hours after start (Claeys)
  patients who experienced phlebitis: 5%
[2]; diluted in 100 to 200 mL, infused over 15 to 20 minutes (Gopinath)
  time of (delayed) venous thrombosis: > 72 h
[3]; IM (Pillans and O'Connor)
  cases of severe local reactions: six
  patients who died: Two of the six
  patients with extensive tissue necrosis at the IM injection site: Three
  patients with necrotizing fasciitis: three
[3]; IM administration, New Zealand 1992 to 2003
  share of all accepted claims for injection related complications: 22.6%
[3]
  incidence of injection site pain: 31%

## O=C(c1ccccc1)c1ccc2n1CCC2C(=O)O (stereo not drawn) [ketorolac]
[3]
  incidence of injection site pain: 3%

## CCC(=O)NS(=O)(=O)c1ccc(-c2c(-c3ccccc3)noc2C)cc1 [parecoxib]
[4]
  sternal wound infections: 3.2%
[5]; vs. 0 placebo
  deaths: 4
[5]; vs. 0.7% placebo
  cerebrovascular events: 2.6%
  incidence of myocardial infarctions: 1.9%

## CN1C(C(=O)Nc2ccccn2)=C(O)c2ccccc2S1(=O)=O.NCCN [piroxicam-ethylenediamine]
[6]; rabbit, in vivo
  incidence of inflammatory cell infiltrates: low
  mean intensity (severity) of edema and infiltrates: none to negligible
[7]
  original NSAID content on storage: 100%±5%
  visible signs of crystallization, deviation in pH and osmolarity on storage: no visible signs of crystallization or significant deviation in pH and osmolarity

## CN1C(C(=O)Nc2ccccn2)=C(O)c2sccc2S1(=O)=O.CN1C(C(=O)Nc2ccccn2)=C(O)c2sccc2S1(=O)=O.NCCN [tenoxicam ethylenediamine]
[7]
  original NSAID content on storage: 100%±5%
  visible signs of crystallization, deviation in pH and osmolarity on storage: no visible signs of crystallization or significant deviation in pH and osmolarity

## CN1C(C(=O)Nc2ccccn2)=C(O)c2ccccc2S1(=O)=O [unsalified piroxicam, 4-hydroxy-2-methyl-N-2-pyridinyl-2H-1,2-benzothiazine-3-carboxamide-1,1-dioxide]
[6]; at the end of needle progression and 1 cm away from the end of progression
  incidence of inflammatory cell infiltrates: intermediate
[6]; injection site histopathology
  mean intensity (severity) of edema and infiltrates: intermediate
